Data on six compounds can be found in the NIST ThermoML archive (doi:10.1016/j.jct.2019.01.001).

Numbers after ± are expanded uncertainties.

The first data set can be described thus: wn = mass fraction of the nth substance listed. The conditions noted are these: 293.15 K; 100 kPa; Liquid; Vibrating tube method; w1 = 0.7.
`O=[N+]([O-])O` [nitric acid] + O: the mass density was determined as 1411.5 ± 2.9 kg/m3.

Experiment in a further data set: not given
The conditions noted are these: 293.15 K; 101.33 kPa; Liquid; Vibrating tube method.
In the case of `CCn1cc[n+](C)c1.F[B-](F)(F)F` [1-ethyl-3-methylimidazolium tetrafluoroborate], the mass density is on record as 1283 ± 5.3 kg/m3.

`CC(=O)CC(C)C` [4-methylpentan-2-one]: the mass density was 800.9 ± 1.6 kg/m3.

Take `CO` [methanol]: the mass density was 791.9 ± 0.4 kg/m3.

Regarding `CCCC(C)O` (stereo unspecified) [pentan-2-ol], the mass density was found to be 810.1 ± 1.6 kg/m3.

`O` [water]: the mass density came to 998.5 ± 0.4 kg/m3.

For orientation: mass density means mass per unit of volume.
